The values that follow come from patent US10793575B2, “Oxoisoquinoline derivatives” (CARNA BIOSCIENCES, INC., priority 2016, dated 2020).

The IC50 is the point on the concentration scale where inhibition reaches its midpoint. A low value points to greater potency in that assay.

The test system of this experiment is OCI-Ly10 cells. Description: Proliferation-Inhibitory Test Against Diffuse Large-Cell B-Cell Lymphoma OCI-Ly10 Strain. Type of experiment: cell-based. To be noted: Homo sapiens, 96 hours, alamarBlue. As to the method:
OCI-Ly10 cells were cultured in IMDM medium (Iscove's Modified Dulbecco's Medium, Manufactured by Thermo Fisher Scientific Inc., hereinafter “medium”) containing 20% Fetal bovine serum and 1% penicillin-streptomycin (Nacalai Tesque, Inc.) in a 5% CO2 incubator. OCI-Ly10 cells were seeded to 96-well plate (20000 cells/well), compounds diluted with medium were added with final concentrations of 0.9 nM to 30000 nM (Final DMSO concentration, 0.3%), incubated for 96 hours and alamorBlue reagent (Thermo Fisher Scientific Inc.) was added.
(Resazurin is reduced to fluorescent resorufin, in cell work by metabolically active cells.)

Regarding `Nc1nc(-c2cccc(-n3ccc4cc(C5CC5)cc(F)c4c3=O)c2CO)c2cc(C3=CCN(C(=O)CN4CCOCC4)CC3)[nH]c2n1` [Example 86, 2-(3-{2-amino-6-[1-(2-morpholinoacetyl)-1,2,3,6-tetrahydropyridin-4-yl]-7H-pyrrolo[2,3-d]pyrimidin-4-yl}-2-(hydroxymethyl)phenyl)-6-cyclopropyl-8-fluoroisoquinolin-1(2H)-one], the 50% inhibitory concentration (IC50) is 13 nM.
The same measure for `Nc1nc(-c2cccc(-n3ccc4cc(C5CC5)cc(F)c4c3=O)c2CO)c2cc(-c3ccc(CN4CCC(O)CC4)cc3)[nH]c2n1` [Example 73, 2-[3-(2-amino-6-{4-[(4-hydroxypiperidin-1-yl)methyl)phenyl}-7H-pyrrolo[2,3-d]pyrimidin-4-yl)-2-(hydroxymethyl)phenyl]-6-cyclopropyl-8-fluoroisoquinolin-1(2H)-one]: 11 nM; for `Nc1nc(-c2cccc(-n3ccc4cc(C5CC5)cc(F)c4c3=O)c2CO)c2cc(-c3cnn(Cc4ccccc4)c3)[nH]c2n1` [Example 58, 2-{3-[2-amino-6-(1-benzyl-1H-pyrazol-4-yl)-7H-pyrrolo[2,3-d]pyrimidin-4-yl]-2-(hydroxymethyl)phenyl}-6-cyclopropyl-8-fluoroisoquinolin-1(2H)-one]: 27 nM.
The same measure for `CN(C)CC(=O)N1CC=C(c2cc3c(-c4cccc(-n5ccc6cc(C7CC7)cc(F)c6c5=O)c4CO)nc(N)nc3[nH]2)CC1` [Example 85, 2-[3-(2-amino-6-{1-[2-(dimethylamino)acetyl]-1,2,3,6-tetrahydropyridin-4-yl}-7H-pyrrolo[2,3-d]pyrimidin-4-yl)-2-(hydroxymethyl)phenyl]-6-cyclopropyl-8-fluoroisoquinolin-1(2H)-one]: 24 nM.
The result for `Cc1ccc(-c2cc3c(-c4cccc(-n5ccc6cc(C7CC7)cc(F)c6c5=O)c4CO)nc(N)nc3[nH]2)cc1` [Example 56, 2-{3-[2-amino-6-(p-tolyl)-7H-pyrrolo[2,3-d]pyrimidin-4-yl]-2-(hydroxymethyl)phenyl}-6-cyclopropyl-8-fluoroisoquinolin-1(2H)-one] reads 412 nM.
